The source of these data is patent publication US12679801B2, “Amino lipid and preparation method and application thereof” (Shenzhen MagicRNA Biotechnology Co., Ltd., priority 2022, dated 2026).

The assay deals with BMDC primary cells. Nature of the assay: Luc mRNA LNP transfection on BMDC primary cells (Embodiment 13, Table 3). Conditions: 16 h, ONE-Glo Luciferase. Format: cell-based, C57BL/6 mice. The procedure:
Preparation method: the same as that described in Embodiment 7.
Animal preparation: 6-week-old female C57BL/6 mice with the body weight about 20 g were selected. The feeding environment was an SPF stage feeding room. Animal tests were strictly performed according to the guide of the national health institute and the animal ethics requirements.
Cell acquisition: C57BL/6 mice were killed through cervical dislocation, and were soaked for 5 min in 75% ethyl alcohol. Dissection was performed to obtain thigh and calf tibiae of the mice. Attached muscles were removed to expose sclerotin. Then, bone marrow in tibiae was blown out by using a 1 mL injector sucked with PBS. After the bone marrow was blown away, impurities were filtered away by a 50 μm filter screen. A red blood cell lysis buffer (3-4 mL) was added into an obtained filtrate. Then, after placement for 5 min, 800 g centrifugation was performed for 5 min to remove the supernatant. The obtained cells were placed into a 1640 culture medium (containing 10% fetal calf serum, 20 ng/mL GMCSF and 10 ng/ml IL4) to be resuspended, and were inoculated into a 6-well plate at an inoculation density of 100000 cells/ml culture medium. The materials were placed into a 37° C. cell incubator containing 5% CO2. Half liquid change was performed once every 2 days. Suspended cells and loose wall attached cells were collected on the seventh day, and were […], and the volume of a culture medium was 100 μL.
Cell transfection: lipid nanoparticles coated with luciferase mRNA were added into a 96-well all-white ELISA plate laid with primary cells. The adding volume of the mRNA lipid nanoparticles in each well was controlled to be 10 μL. Then, the materials were put into a 37° C. incubator containing 5% CO2 for 16 h.
Transfection efficiency detection: 20 μL of a substrate ONE-Glo™ Luciferase was added into each well of a 96-well all-white ELISA plate. After 1 min, detection was performed by a multifunctional or multimode microplate reader.

Regarding `CCCCCCCCCCCC(COC(=O)C(CCCCCC)CCCCCCCC)OC(=O)CCCN(C)C` (stereo not drawn) [E8C71A9], the Luciferase luminescence intensity is recorded as 8.8E+ 04.

For `CCCCCCCCCCCCCC(C)C(=O)OCC(CCCCCCCCCCC)OC(=O)CCCN(C)C` (stereo not drawn) [E8C72A9], the Luciferase luminescence intensity is recorded as 6.1E+ 04.

Regarding `CCCCCCCCCC(CCCCCCC)C(=O)OCC(CCCCCC)OC(=O)CCCCN(C)C` (stereo not drawn) [E3C79A11], the Luciferase luminescence intensity was found to be 9.0E+ 04.

As for `CCCCCCCCCC(CCCCCCC)C(=O)OCC(CCCCCCCC)OC(=O)CCCCN(C)C` (stereo not drawn) [E5C79A11], the Luciferase luminescence intensity was 3.6E+ 04.

In turn, `CCCCCCCCCCC(COC(=O)C(CCCCCCC)CCCCCCCCC)OC(=O)CCCN(C)C` (stereo not drawn) [E7C79A9] yielded a Luciferase luminescence intensity of 5.6E+ 04.

Consider `CCCCCCC(CCCCCC)C(=O)OCC(CCCCCC(CC)CC)OC(=O)CCCN(C)C` (stereo not drawn) [E20C64A9], for which the Luciferase luminescence intensity is 3.0E+ 04.

The molecule `CCCCCCCCCC(COC(=O)C(CCCCCC)CCCCCCCC)OC(=O)CCCCN(C)C` (stereo not drawn) [E6C71A11] yielded a Luciferase luminescence intensity of 3.4E+ 04.

On to `CCCCCCCCCCCCC(COC(=O)CCCCCCCCCCCC(C)C)OC(=O)C(C)CCN(C)C` (stereo not drawn) [E9C67A10], for which the Luciferase luminescence intensity was 7.8E+ 04.

In turn, `CCCCCCCCCCCCCCC(C)C(=O)OCC(CCCCCCCCCCC)OC(=O)C1CCN(C)CC1` (stereo not drawn) [E8C74A23] registered a Luciferase luminescence intensity of 1.3E+ 04.

For the molecule `CCCCCCCCCCC(COC(=O)C(CCCCCC)CCCCCCCC)OC(=O)C(C)CCN(C)C` (stereo not drawn) [E7C71A10], the Luciferase luminescence intensity came out at 8.3E+ 04.

Molecule `CCCCCCCCCCCCCC(C)C(=O)OCC(CCCCCCC)OC(=O)CCCCN(C)C` (stereo not drawn) [E4C72A11] displayed a Luciferase luminescence intensity of 5.8E+ 04.

Take `CCCCCCCCCCCCCCCCCC(=O)OCC(OC(=O)CCCCN(C)C)C(CCCC)CCCCC` (stereo not drawn) [E21C13A11]: the Luciferase luminescence intensity turned out to be 6.4E+ 04.

As for `CCCCCCCCCCCCCCC(C)C(=O)OCC(CCCCCCCC)OC(=O)C(C)CCN(C)C` (stereo not drawn) [E5C74A10], the Luciferase luminescence intensity is on record as 2.9E+ 04.

In turn, `CCCCCCCCCCCCCCC(C)C(=O)OCC(CCCCCCC)OC(=O)CCCN(C)C` (stereo not drawn) [E4C74A9] yielded a Luciferase luminescence intensity of 6.9E+ 04.

`CCCCCCCCCCCCC(COC(=O)C(C)(C)CCCCCCCC)OC(=O)CCCCN(C)C` (stereo not drawn) [E9C58A11] displayed a Luciferase luminescence intensity of 3.5E+ 04.

`CCCCCCCCCCCC(COC(=O)C(CCCCCC)CCCCCC)OC(=O)C(C)CCN(C)C` (stereo not drawn) [E9C64A10] came in with a Luciferase luminescence intensity of 6.1E+ 04.

For the molecule `CCCCCC(CCCC)C(COC(=O)CCCCCCCCCCCC(C)C)OC(=O)CCCN(C)C` (stereo not drawn) [E21C67A9], the Luciferase luminescence intensity was 3.2E+ 04.

For `CCCCCCCCCCCCCCC(C)C(=O)OCC(CCCCCCCCC)OC(=O)C(C)CCN(C)C` (stereo not drawn) [E6C74A10], the Luciferase luminescence intensity was found to be 1.1E+ 04.

In the case of `CCCCCCCCCCCCCCC(=O)OCC(CCCCCC(CC)CC)OC(=O)CCCCN(C)C` (stereo not drawn) [E20C10A11], the Luciferase luminescence intensity was 1.9E+ 04.

Turning to `CCCCCCCCCCCCCC(C)C(=O)OCC(CCCCCCCCCCC)OC(=O)CCCCN(C)C` (stereo not drawn) [E8C72A11], the Luciferase luminescence intensity worked out at 7.3E+ 04.

In the case of `CCCCCCCCCCCCCCC(C)C(=O)OCC(CCCCCCCCCC)OC(=O)C(C)CCN(C)C` (stereo not drawn) [E7C74A10], the Luciferase luminescence intensity is reported as 3.7E+ 04.

The molecule `CCCCCCCCCCCCC(COC(=O)C(CCCCC)CCCCC)OC(=O)C(C)CCN(C)C` (stereo not drawn) [E9C57A10] showed a Luciferase luminescence intensity of 3.2E+ 04.

`CCCCCCCCCCCCC(COC(=O)CCCCCCCCCC(C)CC)OC(=O)C(C)CCN(C)C` (stereo not drawn) [E9C63A10] yielded a Luciferase luminescence intensity of 5.6E+ 04.

Molecule `CCCCCCCCCCCCCCCC(=O)OCC(OC(=O)CCCN(C)C)C(CCCC)CCCCC` (stereo not drawn) [E21C11A9] yielded a Luciferase luminescence intensity of 8.7E+ 03.

`CCCCCCCCCCCCC(COC(=O)C(CC)CCCCCCCCC)OC(=O)C1CCN(C)CC1` (stereo not drawn) [E9C60A23] had a Luciferase luminescence intensity of 1.8E+ 04.

Molecule `CCCCCCCCCCCCCCCC(=O)OCC(CCCCCC(CC)CC)OC(=O)CCCN(C)C` (stereo not drawn) [E20C11A9, 2-((4-(Dimethylamino)Butyryl)Oxy)-8-Ethyldecyl Palmitate] returned a Luciferase luminescence intensity of 9.9E+ 04.

`CCCCCCCCCCCCCCCC(COC(=O)C(CCCCCC)CCCCCC)OC(=O)C1CCN(C)CC1` (stereo not drawn) [E12C64A23] came in with a Luciferase luminescence intensity of 1.8E+ 04.

In the case of `CCCCCCCCCCCCCCC(C)C(=O)OCC(CCCCCCCCCCCCC)OC(=O)CCCN(C)C` (stereo not drawn) [E10C74A9], the Luciferase luminescence intensity was determined as 1.3E+ 04.

In the case of `CCCCCCCCCCCCCC(=O)OC(CC(F)(F)C(F)(F)C(F)(F)C(F)(F)C(F)(F)C(F)(F)F)OC(=O)CCCN(C)C` (stereo not drawn) [E24C9A9, 1-((4-(Dimethylamino)Butyryl)Oxy)-3,3,4,4,5,5,6,6,7,7,8,8,8-Tridecafluorooctyl Tetradecanoate], the Luciferase luminescence intensity amounted to 1.1E+ 04.

In turn, `CCCCCCCCCCCCCCCCC(=O)OCC(OC(=O)CCCCN(C)C)C(CCCC)CCCCC` (stereo not drawn) [E21C12A11] showed a Luciferase luminescence intensity of 9.5E+ 04.

For the molecule `CCCCCCCCCCCCC(COC(=O)C(CCCCCC)CCCCCC)OC(=O)CCCN(C)C` (stereo not drawn) [E9C64A9], the Luciferase luminescence intensity was 8.9E+ 04.

Molecule `CCCCCCCCCC(CCCCCCC)C(=O)OCC(CCCCCCC)OC(=O)C(C)CCN(C)C` (stereo not drawn) [E4C79A10] gave a Luciferase luminescence intensity of 1.3E+ 04.

The molecule `CCCCCCCCCCCCCCC(=O)OCC(CCCCCC(CC)CC)OC(=O)CCCCCN(C)C` (stereo not drawn) [E20C10A12] gave a Luciferase luminescence intensity of 3.6E+ 04.

`CCCCCCCCCCCC(COC(=O)C(CCCCCC)CCCCCCCC)OC(=O)CCCCN(C)C` (stereo not drawn) [E8C71A11] registered a Luciferase luminescence intensity of 5.4E+ 04.

As for `CCCCCCCCCCC(COC(=O)C(CCCCCCC)CCCCCCCCC)OC(=O)CCCCN(C)C` (stereo not drawn) [E7C79A11], the Luciferase luminescence intensity came out at 4.2E+ 04.

`C=CCCCCC(COC(=O)C(CCCCCCC)CCCCCCCCC)OC(=O)C(C)CCN(C)C` (stereo not drawn) [E15C79A10] registered a Luciferase luminescence intensity of 8.9E+ 04.

In the case of `CCCCCCCCCCCCCCC(C)C(=O)OCC(CCCCCCCC)OC(=O)CCCCN(C)C` (stereo not drawn) [E5C74A11], the Luciferase luminescence intensity is on record as 7.7E+ 03.

As to `CCCCCCCCCCCCCCCCCC(=O)OCC(CCCCCCCC)OC(=O)CCCCCN(C)C` (stereo not drawn) [E5C13A12], the Luciferase luminescence intensity was 1.1E+ 04.

Regarding `CCC(CC)CCCCCC(COC(=O)CCCCCCCCCCCC(C)C)OC(=O)CCCN(C)C` (stereo not drawn) [E20C67A9], the Luciferase luminescence intensity stood at 9.5E+ 03.

Molecule `CCCCCCCCCCCCCCCCC(=O)OCC(OC(=O)CCCN(C)C)C(CCCC)CCCCC` (stereo not drawn) [E21C12A9] gave a Luciferase luminescence intensity of 5.4E+ 04.

Take `CCCCCCCCC(CCCCCC)C(=O)OCC(OC(=O)C1CCN(C)CC1)C(CCCC)CCCCC` (stereo not drawn) [E21C71A23]: the Luciferase luminescence intensity is recorded as 1.9E+ 04.

The molecule `CCCCCCCCCCCCCCC(C)C(=O)OCC(CCCCCCC)OC(=O)CCCCN(C)C` (stereo not drawn) [E4C74A11] yielded a Luciferase luminescence intensity of 6.0E+ 04.

For the molecule `CCCCCCCCCCCCCC(COC(=O)C(CCCCCCC)CCCCCCCCC)OC(=O)CCCN(C)C` (stereo not drawn) [E10C79A9], the Luciferase luminescence intensity came to 1.3E+ 04.

Molecule `CCCCCCCCCCCCCCC(COC(=O)C(CC)CCCCCCCCC)OC(=O)CCCCN(C)C` (stereo not drawn) [E11C60A11] returned a Luciferase luminescence intensity of 3.3E+ 04.

Molecule `CCCCCCCCCCCCCCC(C)C(=O)OCC(CCCCCCC)OC(=O)C(C)CCN(C)C` (stereo not drawn) [E4C74A10] returned a Luciferase luminescence intensity of 4.7E+ 04.

In turn, `CCCCCCCCCC(COC(=O)C(CCCCCCC)CCCCCCCCC)OC(=O)CCCCN(C)C` (stereo not drawn) [E6C79A11] registered a Luciferase luminescence intensity of 5.4E+ 04.

Consider `CCCCCCCCCCCCCCC(COC(=O)C(C)(C)CCCCCCCC)OC(=O)CCCCN(C)C` (stereo not drawn) [E11C58A11], for which the Luciferase luminescence intensity is 2.3E+ 04.

`CCCCCCCCCCCCCC(C)C(=O)OCC(CCCCCCCCC)OC(=O)CCCCN(C)C` (stereo not drawn) [E6C72A11] returned a Luciferase luminescence intensity of 5.0E+ 04.

Consider `CCCCCCCCCCCCCCCC(=O)OCC(CCCCCC(CC)CC)OC(=O)C(C)CCN(C)C` (stereo not drawn) [E20C11A10], for which the Luciferase luminescence intensity was determined as 4.5E+ 04.

Regarding `CCCCCCCCCCCCCC(C)C(=O)OCC(CCCCCC(CC)CC)OC(=O)CCCN(C)C` (stereo not drawn) [E20C72A9], the Luciferase luminescence intensity worked out at 4.7E+ 03.

Turning to `C=CCCCCC(COC(=O)C(CCCCCCC)CCCCCCCCC)OC(=O)CCCCCN(C)C` (stereo not drawn) [E15C79A12], the Luciferase luminescence intensity worked out at 4.4E+ 04.

Regarding `CCCCCCCCCCC(COC(=O)C(CCCCCCC)CCCCCCCCC)OC(=O)C(C)CCN(C)C` (stereo not drawn) [E7C79A10], the Luciferase luminescence intensity was 3.6E+ 04.

Molecule `CCCCCCCCCCCCCCC(COC(=O)C(CCCCC)CCCCC)OC(=O)CCCCN(C)C` (stereo not drawn) [E11C57A11] showed a Luciferase luminescence intensity of 6.4E+ 04.

For `CCCCCCCCCC(CCCCCCC)C(=O)OCC(CCCCCC)OC(=O)CCCCCN(C)C` (stereo not drawn) [E3C79A12], the Luciferase luminescence intensity came out at 6.7E+ 04.

With `CCCCCCCCCCCC(COC(=O)C(CCCCCC)CCCCCCCC)OC(=O)C1CCN(C)CC1` (stereo not drawn) [E8C71A23], the Luciferase luminescence intensity is listed as 1.5E+ 04.

Molecule `C=CCCCCC(COC(=O)C(CCCCCCC)CCCCCCCCC)OC(=O)CCCCN(C)C` (stereo not drawn) [E15C79A11] registered a Luciferase luminescence intensity of 3.0E+ 04.

In turn, `CCCCCCCCCCCCCCCCC(=O)OCC(CCCCCC(CC)CC)OC(=O)CCCN(C)C` (stereo not drawn) [E20C12A9] gave a Luciferase luminescence intensity of 4.9E+ 04.
